Consider seven substances from publication PMC7507342, “A Cell‐Free Platform Based on Nisin Biosynthesis for Discovering Novel Lanthipeptides and Guiding their Overproduction In Vivo” (Advanced Science, 2020).

In one test the test system is M. luteus. Nature of the test: MIC determination in 96-well plates. The class given is cell-based, Micrococcus luteus. Conditions: for MIC M. luteus: 96-well plate, bioassay medium, 5.0 × 10^5 CFU mL^−1, 37 °C, 24 h, OD600, n=3. An excerpt:
(§1) The CFPS system is for quick screening of potential antimicrobial lanthipeptides, and we then purified enough compounds of the screened nisin analogs for structure identification and activity assays. We prepared mLanAs for the novel lanthipeptides (RL6, RL8, RL13, and RL14) in E. coli (Table S2, Supporting Information) and removed their leader peptides in vitro, as it is more economical to mass produce targeted lanthipeptides using this previously reported method^[ ^4 ^] rather than to use CFPS to mass produce lanthipeptides. Nisin and most lanthipeptides are not pure products in the commercially available and standard products, they are a mixture of different dehydrating ingredients resulting from incomplete NisB catalysis. Therefore, we verified that the decisive antibacterial component in the currently commercially available nisin is the eightfold dehydrated component (Figure S5, Supporting Information). […] We treated the novel lanthipeptides with the thiol‐alkylating reagent N‐ethylmaleimide (NEM) to sequester any noncyclic Cys residues, and evaluated ring topology using LC‐MS (Figure S7, Supporting Information). […] We quantified these four novel lanthipeptides using the purified eight‐fold dehydrated component of nisin as a standard.
(§2) MICs were determined according to a previously described method^[ ^38 ^] with minor modifications. Briefly, the test medium for clinical strain species was MHB broth (BD Difco), LB broth was used for E. coli, and bioassay medium containing 1.2% tryptone, 0.75% yeast extract, 0.75% NaCl, 0.3% NaH2PO4, and 0.75% glucose was used for M. luteus. Bacteria were grown overnight to the early stationary phase and adjusted in corresponding culture medium to 5.0 × 10^5 CFU mL^−1 in the wells of 96‐well microtiter plates, mixed with varying concentrations of test compounds, and incubated at 37 °C for 24 h. Cell growth was evaluated by measuring the optical density at 600 nm, and the MIC was defined as the lowest compound concentration at which no bacterial growth was observed.
(§3) Table S3. MIC Values of Several Lanthipeptides Against Microorganisms
(§4) MIC* mg/L(μM) M. luteus E. faecalis S. aureus MRSA
(§5) Note: * The test lanthipeptide is a mixture of different dehydration molecules . Quantification of
(§6) lanthipeptides was performed using the eight-fold dehydrated molecules (n=3). The data

In test [1] the test system is E. faecalis (clinical pathogenic strain). Nature of the test: MIC determination in 96-well plates. The test is classed as cell-based, Enterococcus faecalis. To be noted: for MIC E. faecalis: 96-well plate, MHB broth, 5.0 × 10^5 CFU mL^−1, 37 °C, 24 h, OD600, quantified as eight-fold dehydrated molecules, n=3.
Description: as §1, §2, §3, §4, §5, §6

Test [2] deals with S. aureus (clinical pathogenic strain). Nature of the test: MIC determination in 96-well plates. The test is classed as cell-based, Staphylococcus aureus. To be noted: 96-well plate, MHB broth, 5.0 × 10^5 CFU mL^−1, 37 °C, 24 h, OD600, quantified as eight-fold dehydrated molecules, n=3.
Description: as §1, §2, §3, §4, §5, §6

Test [3] deals with MRSA (clinical pathogenic strain). Kind of test: MIC determination in 96-well plates. To be noted: 96-well plate, MHB broth, 5.0 × 10^5 CFU mL^−1, 37 °C, 24 h, OD600, quantified as eight-fold dehydrated molecules, n=3. The test is classed as cell-based, methicillin‐resistant S. aureus.
Description: as §1, §2, §3, §4, §5, §6

The test system of test [4] is Micrococcus luteus NCIB 8166. Kind of test: Agar diffusion bioassay of CFPS mixture. The test is classed as cell-based. To be noted: agar diffusion method; CFPS reaction 6 h. The procedure: We evaluated the performance of our CFPS platform for nisin biosynthesis. Each plasmid (0.5 nmol L^−1) (pJL1‐nisZ, pET28a‐nisB, pET28a‐nisC, and pET28a‐nisP) was added into the CFPS platform and incubated for 6 h (Figure 1A). The 400 µL of reaction mixture was concentrated to 20 µL and the concentrated mixture was then detected by tandem mass spectrometry (LC‐MS‐MS). The results confirmed that fully modified nisin Z was produced in the CFPS mixture (Figure 1B).
These hybrid precursor peptides were then cloned into the pJL1 plasmid. Bagelicin, a nisin analog with antibacterial activity that was identified using a previously described in vivo screening system,^[ ^5 ^] was chosen as the positive control for validation. The pJL1‐nisZ plasmid in our CFPS platform was replaced with the hybrid precursor peptide plasmids (pRL1‐pRL18 and pJL1‐bagelicin). After incubation for 6 h, the bagelicin CFPS mixture (positive control) was analyzed by LC‐MS‐MS and bioassays.
The activity levels of nisin and new lanthipeptides were determined by a previously described agar diffusion method, with minor modifications.^[ ^37 ^] Briefly, a stock nisin solution 1000 IU mL^−1) was prepared by adding 50 mg of commercial nisin (10^6 IU g^−1; Sigma‐Aldrich, St. Louis, MO, USA) into 50 mL of sterile 0.02 mol L^−1 HCl. […]
For orientation: A growth-free zone around the sample is the usual read-out of agar diffusion tests.

A further test concerns E. coli DH5α. Nature of the test: E. coli DH5α growth (OD600) in LB medium with EDTA and purified lanthipeptide. The test is classed as cell-based, Escherichia coli. The method, then:
Figure 4 Screening of nisin mutants using the CFPS system. A) Schematic illustration of the screening for nisin mutants. B) Nisin and nisin mutants. Dha, dehydrolalanine; Dhb, dehydrobutyrine; Abu, 2‐aminobutyric acid. C) Heat‐map of antimicrobial activity of nisin mutants against E. coli in the second round of screening. After adding the CFPS mixture to E. coli and incubating for 8 h, the ΔOD600 value represents the OD600 of E. coli with added nisin mutant CFPS mixture minus the OD600 (control group) of E. coli with nisin CFPS mixture in the same plate. Yellow areas represent an inhibitory effect on E. coli. […] The test lanthipeptide is a mixture of different dehydration molecules, quantification of lanthipeptides was performed using the eightfold dehydrated molecules. […]
Next, to verify the reliability of the CFPS platform for screening, abundant lanthipeptides are required to characterize the structure and anti‐E. coli ability of the mutants. […] The structures were identified by LC‐MS‐MS (Figure 4B; Figure S6, Supporting Information) and the […] rings were detected by NEM reaction (Figure S7, Supporting Information). […]
Figure S8. OD600 of E. coli DH5α in LB Medium with Different Concentrations of EDTA and Nisin after 18 h of Co-culture (n=3) ΔOD600 indicates the difference between readings with different concentrations of blank media. […]

Setting [5] is: mixture of dehydration molecules quantified as eight-fold dehydrated molecules.
Setting [6] is: value in parentheses, quantified as eight-fold dehydrated molecules.
Where [7] appears, read: summary of Table S3 in the text.

Non-standard residues stand in square brackets, D forms with d. No end group written: not given here. Dhb = C/C=C(\N)C(=O)O; Dha = C=C(N)C(=O)O

Consider “VT SKSLC TPGCKTGILQT CAIKSAT CGC SIHIGK (bicyclic or more) [RL8, novel lanthipeptide, nisin analog, core peptide from Bacillus cereus]”, for which the entries for the “MIC M. luteus” value with M. luteus (setting [5]) and with M. luteus (setting [6]) were 0.24 µg/mL and 0.073 µM, respectively. For the same substance, the “MIC E. faecalis” value in test [1] is 250 µg/mL; in test [1] (value in parentheses), 76.52 µM. Further, the entries for the “MIC S. aureus” value in test [2] and in test [2] (value in parentheses) were above 250 µg/mL and above 76.52 µM, respectively. The “MIC MRSA” value is above 250 µg/mL in test [3] and above 76.52 µM in test [3] (value in parentheses).

Take “IT SVSLC TPGCKTGALMGCNMKTAS CGCHVHVSK (bicyclic or more) [RL6, novel lanthipeptide, nisin analog, core peptide from Leuconostoc gelidum]”: the “MIC M. luteus” value with M. luteus (setting [5]) turned out to be 0.12 µg/mL; with M. luteus (setting [6]), 0.037 µM. Further, the figures for the “MIC E. faecalis” value in test [1] and in test [1] (value in parentheses) were 250 µg/mL and 76.17 µM, respectively. Also, the “MIC S. aureus” value is above 250 µg/mL in test [2] and above 76.17 µM in test [2] (value in parentheses). Moreover, the “MIC MRSA” value in test [3] was above 250 µg/mL; in test [3] (value in parentheses) it was above 76.17 µM.

Regarding “Nisin A: commercialized nisin, class I lanthipeptide, food preservative (I[Dhb]SI[Dha]LCTPGCKTGALMGCNMKTATCHCSIHV[Dha]K; cysteine pairing not given here; also: lanthipeptide thioether crosslinks and dehydrated residues, positions not given here; UniProt P13068 24-57, looked up) [reference compound]”, the “MIC M. luteus” value amounted to 0.06 µg/mL with M. luteus (setting [5]) and 0.018 µM with M. luteus (setting [6]). Further, the “MIC E. faecalis” value is 250 µg/mL in test [1] and 74.53 µM in test [1] (value in parentheses). In addition, the results for the “MIC S. aureus” value in test [2] and in test [2] (value in parentheses) were 125 µg/mL and 37.27 µM, respectively. The “MIC MRSA” value in test [3] stood at 125 µg/mL; in test [3] (value in parentheses) it was 37.27 µM.

“IT SKSLC TPGCVTGVLMGCALKTIT CNC SVGIGKK (bicyclic or more) [RL14, novel lanthipeptide, nisin analog, core peptide from Enterococcus rotai/Enterococcus moraviensis]”: the “MIC M. luteus” value with M. luteus (setting [5]) came out at 0.015 µg/mL; in the test with M. luteus (setting [6]) it was 0.0045 µM. Besides, the “antibacterial activity against M. luteus (in words)” value in the test with M. luteus (setting [7]) is “outperforming nisin”. Besides, the “MIC E. faecalis” value in test [1] came to 62.5 µg/mL; in test [1] (value in parentheses), 18.69 µM. The “antibacterial activity against E. faecalis (in words)” value in test [1] (setting [7]) is “outperforming nisin”. For the same substance, the “MIC S. aureus” value stood at 250 µg/mL in test [2] and 74.75 µM in test [2] (value in parentheses). Also, the “MIC MRSA” value in test [3] stood at 250 µg/mL; in test [3] (value in parentheses) it was 74.75 µM.

On to “IT SKSLC TPGCKTGALMT CPIKTAT CGCHFGN (bicyclic or more) [RL13, novel lanthipeptide, nisin analog, core peptide from Streptococcus equinus]”, for which the “MIC M. luteus” value is 0.24 µg/mL in the test with M. luteus (setting [5]) and 0.077 µM in the test with M. luteus (setting [6]). Further, the “MIC E. faecalis” value in test [1] is 250 µg/mL; in test [1] (value in parentheses) it was 80.8 µM. Besides, the “MIC S. aureus” value in test [2] is above 250 µg/mL; in test [2] (value in parentheses) it was above 80.8 µM. The “MIC MRSA” value was above 250 µg/mL in test [3] and above 80.8 µM in test [3] (value in parentheses).

With “Nisin Z: type I lanthipeptide nisin Z, synthesized by CFPS or from mLanA expressed in E. coli (I[Dhb]SI[Dha]LCTPGCKTGALMGCNMKTATCNCSIHV[Dha]K; cysteine pairing not given here; also: lanthipeptide thioether crosslinks and dehydrated residues, positions not given here; UniProt P29559 24-57, looked up) [reference compound]”, the “antibacterial activity of CFPS mixture on M. luteus plate (in words)” value in test [4] was “obvious zone of inhibition”. Further, the results for the “MIC M. luteus” value with M. luteus (setting [5]) and in the test on M. luteus (setting [6]) were 0.12 µg/mL and 0.036 µM, respectively. Further, the “MIC E. faecalis” value in test [1] stood at 250 µg/mL; in test [1] (value in parentheses), 75.05 µM. The “MIC S. aureus” value turned out to be 250 µg/mL in test [2] and 75.05 µM in test [2] (value in parentheses). The “MIC MRSA” value amounted to 125 µg/mL in test [3] and 37.52 µM in test [3] (value in parentheses). Moreover, in the test with E. coli DH5α (320 μM EDTA, nisin Z 24, 48, 96 μM, 18 h co-culture, n=3 (Figure S8)), the “inhibition of E. coli DH5α growth with EDTA (OD600)” value is on record as “obvious”. Besides, the “inhibition of E. coli DH5α growth at 20-fold the reported nisin concentration” value with E. coli DH5α (18 h co-culture (Figure S8)) is reported as “did not exhibit”.

As to “VT SISLC TPGCKTGILMT CAIKTAT CGCHF [Bagelicin]”, in test [4], the “antibacterial activity of CFPS mixture on M. luteus plate (in words)” value is listed as “contained anti‐M. luteus activity”.
